Assay [1] deals with T1, NaV1.8 (Homo sapiens, UniProt Q9Y5Y9). Nature of the assay: Activity against NaV 1.8 channel (Table 3), optical membrane potential / electrophysiology assays. Type of assay: cell-based. Here is the method:
Compounds of the invention are useful as antagonists of voltage-gated sodium ion channels. Antagonist properties of test compounds were assessed as follows. Cells expressing the NaV of interest were placed into microtiter plates. After an incubation period, the cells were stained with fluorescent dyes sensitive to the transmembrane potential. The test compounds were added to the microtiter plate. The cells were stimulated with either a chemical or electrical means ti evoke a NaV dependent membrane potential change from unblocked channels, which was detected and measured with trans-membrane potential-sensitive dyes. Antagonists were detected as a decreased membrane potential response to the stimulus. The optical membrane potential assay utilized voltage-sensitive FRET sensors described by Gonzalez and Tsien (See, Gonzalez, J. E. and R. Y. Tsien (1995) “Voltage sensing by fluorescence resonance energy transfer in single cells” Biophys J 69(4): 1272-80, and Gonzalez, J. E. and R. Y. Tsien (1997) “Improved indicators of cell membrane potential that use fluorescence resonance energy transfer” Chem Biol 4(4): 269-77) in combination with instrumentation for measuring fluorescence changes such as the Voltage/Ion Probe Reader (VIPR®) (See, Gonzalez, J. E., K. Oades, et al. (1999) “Cell-based assays and instrumentation for screening ion-channel targets” Drug Discov Today 4(9): 431-439).
The following is an example of how NaV1.3 inhibition activity is measured using the optical membrane potential method #2. Other subtypes are performed in an analogous mode in a cell line expressing the NaV of interest.
HEK293 cells stably expressing NaV1.3 are plated into 96-well microtiter plates. After an appropriate incubation period, the cells are stained with the voltage sensitive dyes CC2-DMPE/DiSBAC2(3) as follows.
2X CC2-DMPE=20 μM CC2-DMPE: 10 mM CC2-DMPE is vortexed with an equivalent volume of 10% pluronic, followed by vortexing in required amount of HBSS containing 10 mM HEPES. Each cell plate will require 5 mL of 2X CC2-DMPE. 50 μL of 2X CC2-DMPE is to wells containing washed cells, resulting in a 10 μM final staining concentration. The cells are stained for 30 minutes in the dark at RT.
2X DISBAC2(3) with ABSC1=6 μM DISBAC2(3) and 1 mM ABSC1: The required amount of 10 mM DISBAC2(3) is added to a 50 ml conical tube and mixed with 1 μL 10% pluronic for each mL of solution to be made and vortexed together. Then HBSS/HEPES is added to make up 2X solution. Finally, the ABSC1 is added.
The 2X DiSBAC2(3) solution can be used to solvate compound plates. Note that compound plates are made at 2X drug concentration. Wash stained plate again, leaving residual volume of 50 μL. Add 50 uL/well of the 2X DiSBAC2(3) w/ABSC1. Stain for 30 minutes in the dark at RT.
The electrical stimulation instrument and methods of use are described in ION Channel Assay Methods PCT/US01/21652, herein incorporated by reference. The instrument comprises a microtiter plate handler, an optical system for exciting the coumarin dye while simultaneously recording the coumarin and oxonol emissions, a waveform generator, a current- or voltage-controlled amplifier, and a device for inserting electrodes in well. Under integrated computer control, this instrument passes user-programmed electrical stimulus protocols to cells within the wells of the microtiter plate.
Assay Protocol • 1. Insert or use electrodes into each well to be assayed. • 2. Use the current-controlled amplifier to deliver stimulation wave pulses for 3 s. Two seconds of pre-stimulus recording are performed to obtain the un-stimulated intensities. Five seconds of post-stimulation recording are performed to examine the relaxation to the resting state.
Data are analyzed and reported as normalized ratios of background-subtracted emission intensities measured in the 460 nm and 580 nm channels. Background intensities are then subtracted from each assay channel. […]

Another assay concerns the target NaV1.3 (Homo sapiens, UniProt Q9NY46). The note with it: read-out: TTX IC50; cited from earlier work.
A further assay addresses NaV1.6 (Homo sapiens, UniProt Q9UQD0). The note with it: read-out: TTX IC50; cited from earlier work.
Assay [2] concerns the target T1, NaV1.8. As to conditions: read-out: TTX IC50; cited from earlier work.
Another assay has as its target NaV1.9 (Homo sapiens, UniProt Q9UI33). As to conditions: read-out: TTX IC50; cited from earlier work.
The target in a further assay is NaV1.1 (Homo sapiens, UniProt P35498). The note with it: read-out: TTX IC50; cited from earlier work.
In the next assay the target is NaV1.2 (Homo sapiens, UniProt Q99250). The note with it: read-out: TTX IC50; cited from earlier work.
NaV1.2, sequence (Q99250 whole entry, looked up): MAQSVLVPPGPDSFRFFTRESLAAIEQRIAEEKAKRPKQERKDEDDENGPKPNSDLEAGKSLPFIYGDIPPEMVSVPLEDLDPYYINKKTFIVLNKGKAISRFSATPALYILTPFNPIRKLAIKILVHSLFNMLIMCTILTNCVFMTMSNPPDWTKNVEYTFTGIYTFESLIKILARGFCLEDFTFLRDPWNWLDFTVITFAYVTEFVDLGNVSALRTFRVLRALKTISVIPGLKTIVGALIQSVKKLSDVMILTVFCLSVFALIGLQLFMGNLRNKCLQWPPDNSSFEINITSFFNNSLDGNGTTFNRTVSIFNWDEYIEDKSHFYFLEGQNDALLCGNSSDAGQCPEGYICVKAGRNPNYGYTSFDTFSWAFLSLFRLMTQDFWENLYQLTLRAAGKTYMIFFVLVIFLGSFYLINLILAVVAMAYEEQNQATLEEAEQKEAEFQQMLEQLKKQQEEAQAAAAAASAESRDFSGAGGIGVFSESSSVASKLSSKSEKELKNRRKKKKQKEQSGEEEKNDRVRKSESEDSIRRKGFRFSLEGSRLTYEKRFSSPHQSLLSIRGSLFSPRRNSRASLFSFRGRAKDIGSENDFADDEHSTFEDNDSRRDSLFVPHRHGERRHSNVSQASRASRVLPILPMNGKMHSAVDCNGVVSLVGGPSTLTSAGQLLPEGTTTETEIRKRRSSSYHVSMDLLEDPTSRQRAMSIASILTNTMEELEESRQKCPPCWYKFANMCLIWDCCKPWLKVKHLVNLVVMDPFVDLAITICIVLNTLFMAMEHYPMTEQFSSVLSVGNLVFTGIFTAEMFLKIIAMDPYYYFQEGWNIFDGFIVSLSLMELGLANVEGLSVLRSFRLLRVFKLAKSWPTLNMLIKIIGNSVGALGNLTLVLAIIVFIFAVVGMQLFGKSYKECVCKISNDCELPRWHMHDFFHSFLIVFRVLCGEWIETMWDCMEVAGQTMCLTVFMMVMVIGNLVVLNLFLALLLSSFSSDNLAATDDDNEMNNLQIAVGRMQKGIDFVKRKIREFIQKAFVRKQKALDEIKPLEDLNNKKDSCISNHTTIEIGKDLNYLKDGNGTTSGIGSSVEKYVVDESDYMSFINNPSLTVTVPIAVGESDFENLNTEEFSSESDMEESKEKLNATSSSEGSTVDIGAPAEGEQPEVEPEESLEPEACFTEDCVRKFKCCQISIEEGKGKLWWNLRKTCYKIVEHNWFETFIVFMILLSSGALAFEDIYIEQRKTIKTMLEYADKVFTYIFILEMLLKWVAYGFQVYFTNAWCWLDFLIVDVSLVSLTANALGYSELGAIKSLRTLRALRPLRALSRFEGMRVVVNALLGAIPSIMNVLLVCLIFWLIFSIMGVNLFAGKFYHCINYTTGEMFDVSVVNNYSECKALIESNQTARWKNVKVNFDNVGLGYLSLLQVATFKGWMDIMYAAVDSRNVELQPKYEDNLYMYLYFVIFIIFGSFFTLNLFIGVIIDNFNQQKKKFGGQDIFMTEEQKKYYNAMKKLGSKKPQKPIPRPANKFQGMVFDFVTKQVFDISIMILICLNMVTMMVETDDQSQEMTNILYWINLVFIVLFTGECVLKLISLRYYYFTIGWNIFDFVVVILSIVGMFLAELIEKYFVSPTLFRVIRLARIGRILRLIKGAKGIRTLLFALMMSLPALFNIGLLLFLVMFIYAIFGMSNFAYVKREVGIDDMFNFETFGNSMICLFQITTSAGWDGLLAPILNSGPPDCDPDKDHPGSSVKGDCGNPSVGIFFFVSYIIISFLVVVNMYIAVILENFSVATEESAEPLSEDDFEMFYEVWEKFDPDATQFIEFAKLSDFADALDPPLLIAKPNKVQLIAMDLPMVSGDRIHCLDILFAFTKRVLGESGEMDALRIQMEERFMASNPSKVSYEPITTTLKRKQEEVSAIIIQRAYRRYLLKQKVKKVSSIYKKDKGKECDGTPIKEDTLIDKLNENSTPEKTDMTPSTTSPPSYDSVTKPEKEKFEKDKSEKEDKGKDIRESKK

Molecules are shown by their SMILES. Where two headings read alike, the source gives them in different places.

NaV1.3, sequence (Q9NY46 whole entry, looked up): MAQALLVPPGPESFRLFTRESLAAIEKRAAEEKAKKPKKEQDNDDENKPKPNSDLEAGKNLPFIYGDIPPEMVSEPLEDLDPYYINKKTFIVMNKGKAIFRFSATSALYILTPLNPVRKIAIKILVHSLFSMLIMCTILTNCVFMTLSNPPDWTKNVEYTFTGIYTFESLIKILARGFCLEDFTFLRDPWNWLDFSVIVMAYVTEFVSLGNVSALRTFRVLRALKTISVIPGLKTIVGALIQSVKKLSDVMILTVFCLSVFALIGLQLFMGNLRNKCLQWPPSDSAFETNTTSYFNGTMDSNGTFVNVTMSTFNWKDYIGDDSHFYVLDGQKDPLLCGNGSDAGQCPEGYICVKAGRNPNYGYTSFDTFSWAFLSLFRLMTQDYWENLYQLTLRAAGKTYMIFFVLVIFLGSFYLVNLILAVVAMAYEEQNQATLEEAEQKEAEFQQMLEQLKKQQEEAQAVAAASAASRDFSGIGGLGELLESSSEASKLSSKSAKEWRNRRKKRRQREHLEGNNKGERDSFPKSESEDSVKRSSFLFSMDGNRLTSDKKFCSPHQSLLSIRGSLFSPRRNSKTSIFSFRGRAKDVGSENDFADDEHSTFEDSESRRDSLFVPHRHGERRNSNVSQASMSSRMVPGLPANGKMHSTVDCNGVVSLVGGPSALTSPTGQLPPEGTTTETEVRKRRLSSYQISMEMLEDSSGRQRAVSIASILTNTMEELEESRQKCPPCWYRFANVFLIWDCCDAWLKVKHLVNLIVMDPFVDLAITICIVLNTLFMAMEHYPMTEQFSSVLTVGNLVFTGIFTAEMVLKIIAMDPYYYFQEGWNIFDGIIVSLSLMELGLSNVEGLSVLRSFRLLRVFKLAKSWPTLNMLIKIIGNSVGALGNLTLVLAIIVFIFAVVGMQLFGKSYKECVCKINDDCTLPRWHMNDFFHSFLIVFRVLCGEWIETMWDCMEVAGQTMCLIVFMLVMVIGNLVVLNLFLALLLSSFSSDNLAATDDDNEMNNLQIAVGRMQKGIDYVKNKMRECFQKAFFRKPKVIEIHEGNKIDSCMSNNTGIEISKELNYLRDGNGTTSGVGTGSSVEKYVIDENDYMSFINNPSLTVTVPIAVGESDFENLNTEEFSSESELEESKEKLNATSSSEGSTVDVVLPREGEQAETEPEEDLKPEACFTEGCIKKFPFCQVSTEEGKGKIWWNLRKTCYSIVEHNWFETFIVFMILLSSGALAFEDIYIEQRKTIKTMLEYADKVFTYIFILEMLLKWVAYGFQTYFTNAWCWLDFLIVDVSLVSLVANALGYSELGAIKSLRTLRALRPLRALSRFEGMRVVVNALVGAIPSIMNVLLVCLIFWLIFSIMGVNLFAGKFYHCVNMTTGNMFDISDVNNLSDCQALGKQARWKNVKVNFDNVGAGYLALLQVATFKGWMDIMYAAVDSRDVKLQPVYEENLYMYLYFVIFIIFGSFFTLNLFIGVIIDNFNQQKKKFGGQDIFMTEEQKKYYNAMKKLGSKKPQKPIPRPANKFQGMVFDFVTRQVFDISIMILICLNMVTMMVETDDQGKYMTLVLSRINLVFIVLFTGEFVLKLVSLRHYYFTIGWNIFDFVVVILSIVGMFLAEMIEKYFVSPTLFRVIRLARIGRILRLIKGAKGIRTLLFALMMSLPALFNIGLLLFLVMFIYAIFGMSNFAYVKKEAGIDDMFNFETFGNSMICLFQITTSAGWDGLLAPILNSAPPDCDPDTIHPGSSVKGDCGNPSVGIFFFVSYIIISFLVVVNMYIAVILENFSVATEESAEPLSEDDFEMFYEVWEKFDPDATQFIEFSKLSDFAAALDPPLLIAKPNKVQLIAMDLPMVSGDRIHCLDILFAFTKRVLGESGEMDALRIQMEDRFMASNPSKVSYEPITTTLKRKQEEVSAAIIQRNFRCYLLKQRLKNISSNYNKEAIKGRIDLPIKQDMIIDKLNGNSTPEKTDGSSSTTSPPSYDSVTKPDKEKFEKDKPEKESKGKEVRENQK

The term IC50 denotes the concentration needed to halve the response being measured. Turning to `CC(C)(C)c1ccc(C(=O)Nc2cccc(S(N)(=O)=O)c2)c(Oc2ccc(C(F)(F)F)cc2Cl)c1` [Compound 116], the IC50 at NaV1.8 [1] was 2 to 10 µM.

As to `CCOc1ccc(C(=O)Nc2cccc(S(N)(=O)=O)c2)c(OCC)c1` [Compound 117], the IC50 at NaV1.8 [1] is > 10 µM.

For `CC(C)(C)c1ccc(C(=O)Nc2cccc(S(N)(=O)=O)c2)c(Oc2ccc(C(N)=O)cc2)c1` [Compound 118], on NaV1.8 [1], the IC50 is > 10 µM.

For the molecule `Cc1cccc(Oc2cc(C(C)(C)C)ccc2C(=O)Nc2cccc(S(N)(=O)=O)c2)c1` [Compound 119], the 50% inhibitory concentration (IC50) at NaV1.8 [1] is < 2 µM.

Take `NS(=O)(=O)c1cccc(NC(=O)c2ccc(Cl)cc2Cl)c1` [Compound 120]: the half-inhibitory concentration (IC50) on NaV1.8 [1] was > 10 µM.

As for `CN(C)S(=O)(=O)c1cccc(NC(=O)c2ccc(C(C)(C)C)cc2Oc2ccc(F)cc2Cl)c1` [Compound 121], on NaV1.8 [1], the IC50 is < 2 µM.

On to `CC(=O)c1ccccc1C(=O)Nc1cccc(S(N)(=O)=O)c1` [Compound 122], for which the IC50 at NaV1.8 [1] was > 10 µM.

`COc1ccc(C(=O)Nc2cccc(S(N)(=O)=O)c2)c(OC)c1` [Compound 123]: the IC50 on NaV1.8 [1] is > 10 µM.

In the case of `Cc1cc(Oc2cc(C(C)(C)C)ccc2C(=O)Nc2cccc(S(N)(=O)=O)c2)cc(C)n1` [Compound 124], the IC50 on NaV1.8 [1] is > 10 µM.

Regarding `COC(=O)c1ccc(Oc2cc(C(C)(C)C)ccc2C(=O)Nc2cccc(S(N)(=O)=O)c2)cc1` [Compound 125], the IC50 on NaV1.8 [1] is < 2 µM.

As for `CC(C)(C)NS(=O)(=O)c1cccc(NC(=O)c2ccc(C(C)(C)C)cc2Br)c1` [Compound 126], the IC50 at NaV1.8 [1] was 2 to 10 µM.

As for `CS(=O)(=O)c1ccc(C(=O)Nc2cccc(S(N)(=O)=O)c2)c(Cl)c1` [Compound 127], the IC50 on NaV1.8 [1] was > 10 µM.

`CC(=O)c1ccc(Oc2cc(C(C)(C)C)ccc2C(=O)Nc2cccc(S(N)(=O)=O)c2)cc1` [Compound 128]: on NaV1.8 [1], the half-inhibitory concentration (IC50) was < 2 µM.

On to `CC(C)(C)c1ccc(C(=O)Nc2cccc(S(N)(=O)=O)c2)c(Oc2cc(C(F)(F)F)ncn2)c1` [Compound 129], for which, on NaV1.8 [1], the IC50 was > 10 µM.

For the molecule `CC(C)(C)c1ccc(C(=O)Nc2cccc(S(N)(=O)=O)c2)c(Oc2ccc(C#N)cc2)c1` [Compound 130], the IC50 at NaV1.8 [1] was < 2 µM.

With `CCCOc1ccccc1C(=O)Nc1cccc(S(N)(=O)=O)c1` [Compound 131], the IC50 on NaV1.8 [1] was > 10 µM.

Consider `CC(C)(C)c1ccc(C(=O)Nc2cccc(S(N)(=O)=O)c2)c(Oc2cccc(F)c2)c1` [Compound 132], for which the IC50 at NaV1.8 [1] was < 2 µM.

Consider `COc1ccc(C(=O)Nc2cccc(S(N)(=O)=O)c2)c(C(F)(F)F)c1` [Compound 133], for which the IC50 on NaV1.8 [1] is > 10 µM.

On to `CC(C)(C)c1ccc(C(=O)Nc2cccc(S(N)(=O)=O)c2)c(Oc2cccc(C(F)(F)F)c2)c1` [Compound 134], for which, at NaV1.8 [1], the IC50 is < 2 µM.

Consider `CC(=O)c1cccc(Oc2cc(C(C)(C)C)ccc2C(=O)Nc2cccc(S(N)(=O)=O)c2)c1` [Compound 135], for which the IC50 on NaV1.8 [1] is < 2 µM.

As for `CC(C)(C)c1ccc(C(=O)Nc2cccc(S(N)(=O)=O)c2)c(Oc2cccc(N3CCOCC3)c2)c1` [Compound 136], the IC50 at NaV1.8 [1] was > 10 µM.

In the case of `CCc1ccccc1C(=O)Nc1cccc(S(N)(=O)=O)c1` [Compound 137], the IC50 on NaV1.8 [1] was > 10 µM.

As to `Cc1ncccc1Oc1cc(C(F)(F)F)ccc1C(=O)Nc1cccc(S(N)(=O)=O)c1` [Compound 138, 2-(2-methylpyridin-3-yloxy)-N-(3-sulfamoylphenyl)-4-(trifluoromethyl)benzamide], the IC50 on NaV1.8 [1] was < 2 µM.

Turning to `COc1cccc(Oc2cc(C(C)(C)C)ccc2C(=O)Nc2cccc(S(N)(=O)=O)c2)c1` [Compound 139], the IC50 at NaV1.8 [1] lay in the range of 2 to 10 µM.

In the case of `COc1cc(Cl)ccc1C(=O)Nc1cccc(S(N)(=O)=O)c1` [Compound 140], the IC50 at NaV1.8 [1] was > 10 µM.

With `COc1ccc(C(=O)Nc2cccc(S(N)(=O)=O)c2)c(C)c1` [Compound 141], on NaV1.8 [1], the IC50 is > 10 µM.

With `Cc1ccc(C(=O)Nc2cccc(S(N)(=O)=O)c2)c(Br)c1` [Compound 142], the IC50 at NaV1.8 [1] is > 10 µM.

Regarding `CC(C)(C)c1ccc(C(=O)Nc2cccc(S(N)(=O)=O)c2)c(Oc2ccc(C#N)cc2Cl)c1` [Compound 143], on NaV1.8 [1], the IC50 is < 2 µM.

For the molecule `Cc1ccc(Oc2cc(C(C)(C)C)ccc2C(=O)Nc2cccc(S(N)(=O)=O)c2)cn1` [Compound 144], the IC50 on NaV1.8 [1] is < 2 µM.

With `NC1=N[C@H](O)[C@H]2[C@H]3O[C@]4(O)O[C@@H]([C@@H](O)[C@@]2(N1)[C@@H]4O)[C@]3(O)CO` [TTX, tetrodotoxin], the IC50 was 0.015 µM at NaV1.3; 0.006 µM on NaV1.6; > 50 µM on NaV1.8 [2]; 1 µM at NaV1.9; 0.01 µM at NaV1.1; 0.01 µM on NaV1.2.
